Measurements published in PubChem BioAssay AID2305 (GlaxoSmithKline (GSK), 2010).

Test system: P. falciparum 3D7 growth, pLDH absorbance
Assay: blood-stage malaria parasite growth potency – strain 3D7, dose response (AID 2305)

## CCN(CC)CCN(Cc1ccc(-c2ccc(C(F)(F)F)cc2)cc1)C(=O)Cn1c(CCc2cc(F)cc(F)c2)nc(=O)c2ccccc21
  IC50: 980 nM

## CC(C)(C)c1ccc(CNC(=O)c2cc(CNC3CCNCC3)ccc2O)cc1
  IC50: 710 nM

## COC(=O)c1ccc(CC(C)NCC(O)c2cccc(Oc3cccc(C(F)(F)F)c3)c2)cc1 (stereo not given)
  IC50: 1170 nM

## O=C(O)c1ccc2c(c1)N(C(=O)CNCc1ccc(F)cc1)CC(=O)N2CCCc1ccccc1
  IC50: 920 nM

## Cc1ccc(C(NC(=O)C2CCCCC2)c2ccc3cccnc3c2O)cc1 (stereo not given)
  IC50: 950 nM

## CCC(O)c1ccc(Br)cc1NC(=O)c1cccc(Cl)c1 (stereo not given)
  IC50: 1020 nM

## CCN(CC)C(=O)C1CCCN(C(=O)Nc2cc(C(F)(F)F)cc(C(F)(F)F)c2)C1 (stereo not given)
  IC50: 1000 nM

## CN(CCN(C)CC(O)c1ccc(Cl)c(Cl)c1)CC(O)c1ccc(Cl)c(Cl)c1 (stereo not given)
  IC50: 1100 nM

## Cc1ccc(NC(=O)c2cc(Br)cc(N3CCCN(C)CC3)c2)cc1F
  IC50: 1340 nM

## Cn1ccnc1Sc1ncccc1[N+](=O)[O-]
  IC50: 970 nM

## COc1cccc(-c2cnc(N)c(-c3nc4ccc(F)cc4[nH]3)c2)c1
  IC50: 850 nM

## CCC(C)(C)N[C@@H](C)[C@@H](O)c1ccc(C(F)(F)F)cc1
  IC50: 750 nM

## CCN(CC)CC(O)c1cc(-c2ccc(C)cc2)nc2c(C)cc(C)cc12 (stereo not given)
  IC50: 170 nM

## CCOc1ccc(C(Cc2ccccc2)NC(=O)c2cccnc2)cc1OCC (stereo not given)
  IC50: 770 nM

## O=C(Nc1cccc(C(F)(F)F)c1)c1cccc(S(=O)(=O)NCC2CCCN2CC2CCCCC2)c1 (stereo not given)
  IC50: 1110 nM

## O=C(Nc1cccc(CN2CCN(Cc3ccc(O)cc3)CC2)c1)c1cc2ccccc2s1
  IC50: 680 nM

## Cc1nc(SCC(=O)N2CCCC2=O)c2c(C)c(C)sc2n1
  IC50: 170 nM

## Cc1nc(-c2ccc(-c3ccc(C(=O)Nc4ccc(C(C)C)c(OCCN(C)C)c4)cc3)c(C)c2)no1
  IC50: 870 nM

## Cc1cc(OCC2CCN(c3ncc(C(=O)NC4CC4)cc3Cl)CC2)ccc1F
  IC50: 790 nM

## COc1ccccc1-c1sccc1C(=O)NC1(c2cc(Cl)cc(Cl)c2)CCCC1
  IC50: 940 nM

## COc1ccc2ncc(F)c(CCN3CCC4(CC3)COC(c3cc5c(cn3)OCCO5)=N4)c2n1
  IC50: 220 nM

## CNC(=S)NCc1cnc2ccccn12
  IC50: 200 nM

## COc1ccc(NC(=O)Nc2cccc(-c3ccc(-c4nc5ccc(C(F)(F)F)cc5[nH]4)cc3)c2)cc1
  IC50: 450 nM

## Cc1cccc(C=NNc2cc(C)nc3ccc(F)cc23)n1
  IC50: 1000 nM

## N#Cc1cccc(CN2CCCN(Cc3cccc(C(=O)Nc4ccc(Cl)cc4)c3)CC2)c1
  IC50: 1180 nM

## CCCc1c(C(=O)NC2CCC(CN3CCC(c4c[nH]c5ccccc45)CC3)CC2)cnn1-c1c(Cl)cc(Cl)cc1Cl (stereo not given)
  IC50: 820 nM

## CCOC(=O)c1cn(CC)c2cc(N(C)CCc3ccc(OC)c(OC)c3)c(F)cc2c1=O
  IC50: 430 nM

## N#Cc1ccc(/C=C/C(=O)NCCCCCN2CCN(C(=O)Nc3ccc(Cl)c(C(F)(F)F)c3)CC2)cc1
  IC50: 780 nM

## O=C(Nc1ccc(-c2cncc(NCCCN3CCCC3)c2)cc1)c1ccccc1
  IC50: 940 nM

## Cc1nn(CC(C)C)c2sc(C(=O)N3CCN(S(=O)(=O)c4ccc(C#N)cc4)CC3)cc12
  IC50: 740 nM

## Cc1cc2c(/C=C/C(=O)NC3CCC(CCN4CCc5ccc(C#N)cc5CC4)CC3)cccc2[nH]1 (stereo not given)
  IC50: 840 nM

## CC(C)(C)c1nn(-c2ccccc2)c2[nH]c(=O)c(CNCc3ccccc3)cc12
  IC50: 1050 nM

## Cc1ccc(CN=C(N)NC(=O)c2nc(Cl)c(NCc3ccc(Cl)cc3)nc2N)c(C)c1
  IC50: 170 nM

## CN(C)C(CNC(=O)c1cc(-c2ccncc2)c(-c2ccc(NC(=O)Nc3cccc(Cl)c3)cc2)o1)c1ccccc1 (stereo not given)
  IC50: 180 nM

## Cc1cccc2[nH]c(-c3ccc(-c4ccc(CNCc5ccc(S(C)(=O)=O)cc5)cc4)cc3)nc12
  IC50: 750 nM

## O=C(Nc1nc2ccc(Cl)cc2s1)c1csnn1
  IC50: 790 nM

## CCOC(=O)c1ccc2nc(-c3ccc(C(=O)NC4CCN(Cc5ccccc5)CC4)s3)[nH]c2c1
  IC50: 740 nM

## CC(C)[C@H]1CC[C@H](C)C[C@@H]1OC(=O)N[C@@H](Cc1ccc(O)cc1)C(=O)NC1CCN(Cc2ccc(OCCCN(C)C)cc2)C1 (stereo not given in full)
  IC50: 760 nM

## CCn1cc(C=C2Oc3c(ccc(O)c3CN3CCCCC3)C2=O)c2ccccc21
  IC50: 280 nM

## O=C(Nc1ccc2c(c1)CCC2)c1ccc(N2CCN(c3ccncc3)CC2)cn1
  IC50: 860 nM

## Cc1cc(Nc2nc(NCc3cccnc3)nc3ccccc23)n[nH]1
  IC50: 850 nM

## Clc1ccc(Sc2cncnc2N2CCOCC2)cc1
  IC50: 40 nM

## O=C(CSc1nc2ccccc2c(=O)n1CC1CCCO1)Nc1cc(C(F)(F)F)ccc1Cl (stereo not given)
  IC50: 230 nM

## c1ccc(CN2CCC(NCc3ccccc3-c3ccc(CNCc4ccc5c(c4)OCO5)cc3)CC2)cc1
  IC50: 330 nM

## Oc1ccc2ccccc2c1CNCCC1CCCCC1
  IC50: 170 nM

## COc1cc(Cc2cnc(NCCN3CCNCC3)nc2N)ccc1OCc1ccc(C(F)(F)F)cc1
  IC50: 920 nM

## COc1cccc(NC(=O)NC2CCN(c3ccnc(Nc4cc(OC)c(OC)c(OC)c4)n3)C2)c1 (stereo not given)
  IC50: 860 nM

## O=C(/C=C/c1ccc(C(F)(F)F)cc1)NCCCCCN1CCN(C(=O)Nc2ccc(F)c(Cl)c2)CC1
  IC50: 1210 nM

## c1ccc(-c2ccc3c(Nc4ccc5[nH]ncc5c4)ccnc3c2)nc1
  IC50: 820 nM

## CN1CCCC1CCNc1ncc2c(-c3ccc(NC(=O)Nc4cc(C(F)(F)F)ccc4F)c(F)c3)nn(C)c2n1 (stereo not given)
  IC50: 290 nM

## CC(=O)Nc1ccc(S(=O)(=O)Nc2c(C)cc(Cc3cnc(N)nc3N)cc2C)cc1
  IC50: 1000 nM

## N#CC1(CCCNCCc2ccc(O)cc2)CCCc2c(O)cccc21 (stereo not given)
  IC50: 760 nM

## N#Cc1ccc(CN2CCC(Oc3ccc(NC(=O)c4cccs4)cc3)C2)cc1 (stereo not given)
  IC50: 950 nM

## CN(C)CC1CCCN1Cc1ccccc1-c1cnn(C)c(=O)c1Oc1ccc(F)cc1 (stereo not given)
  IC50: 1220 nM

## CC(C)CN1CCN(CCNc2c3ccccc3nc3ccccc23)CC1
  IC50: 820 nM

## CCCCCCCN1CC[C@@H](CCCc2ccnc3ccc(OCCC4CCNCC4)cc23)[C@@H](CC)C1
  IC50: 610 nM

## CSc1cccc(Nc2nc3ccc(S(=O)(=O)NCC(C)C)cc3n2C(C)C(C)C)c1 (stereo not given)
  IC50: 820 nM

## CCNC(=O)Nc1cccc(-c2cccc(-c3nc4c(C)cccc4[nH]3)c2)c1
  IC50: 1040 nM

## Cc1ccccc1Nc1cc(Nc2ccccc2C)c2ccccc2n1
  IC50: 780 nM

## Cc1ccc(C(=O)Nc2ccc(F)cc2)cc1-c1nc(NC2CC(C)(C)NC(C)(C)C2)nc2c1ccc(=O)n2-c1c(F)cccc1F
  IC50: 680 nM

## CC(C)CCNCc1ccc(OCc2cccc(C(=O)Nc3ccccc3)c2)c(I)c1
  IC50: 290 nM

## CS(=O)(=O)NCCCNCc1ccc(-c2ccc(-c3nc4ccc(C(F)(F)F)cc4[nH]3)cc2)cc1
  IC50: 460 nM

## CN1CCC(C(=O)Nc2ccc(-c3ccc(-c4nc5ccccc5[nH]4)cc3)cc2)CC1
  IC50: 980 nM

## O=C(Nc1ccc(C(F)(F)F)cc1)c1ccc(S(=O)(=O)NCC2CCCN(CC3CCCCC3)C2)cc1 (stereo not given)
  IC50: 150 nM

## COc1cc2nc(N3CCC(CNC(=O)c4ccc(-c5ccc(C(=O)N(C)C)cc5OCCN(C)C)cc4)CC3)nc(N)c2cc1OC
  IC50: 840 nM

## COC(=O)c1ccc(CCC(C)NCC(O)c2cccc(Cl)c2)cc1 (stereo not given)
  IC50: 670 nM

## CC1CN(S(=O)(=O)c2ccc(NC(=O)c3cc(-c4ccccc4O)n[nH]3)cc2)CC(C)O1 (stereo not given)
  IC50: 830 nM

## O=C(Cn1cc(C(F)(F)F)cc(Cl)c1=O)N1CCN(S(=O)(=O)c2ccc(Cl)cc2)CC1
  IC50: 900 nM

## NC(=O)c1sc(-n2cnc3ccc(OCC4CCNCC4)cc32)cc1OCc1ccccc1C(F)(F)F
  IC50: 750 nM

## CCCC(C)Nc1nc(C)cc(N[C@@H](Cc2ccccc2)C(=O)Nc2ccc(OC)cc2)n1 (stereo not given in full)
  IC50: 1120 nM
